row,SMILES,melting point
1,"CCOc1cc(C=NO)ccc1O [Test compound 9, 3-ethoxy-4-hydroxybenzaldoxime]",189 °C (dec.)
2,"CCON=Cc1ccc(O)c(OCC)c1 [Test compound 4, 3-ethoxy-4-hydroxybenzaldehyde O-ethyloxime]",43 °C
3,"ON=Cc1ccc(O)c(O)c1 [Test compound 5, 3,4-dihydroxybenzaldoxime]",143 °C (dec.)
4,"CCON=Cc1ccc(OC)c(O)c1 [Test compound 3, 3-hydroxy-4-methoxybenzaldehyde O-ethyloxime]",61.4 °C
5,"CCON=Cc1ccc(O)c(OC)c1 [Test compound 7, 4-hydroxy-3-methoxybenzaldehyde O-ethyloxime]",31.7 °C
6,"CCON=Cc1ccc(O)c(O)c1 [Test compound 11, 3,4-dihydroxybenzaldehyde O-ethyloxime]",23 °C
7,"COc1ccc(C=NO)cc1O [Test compound 6, 3-hydroxy-4-methoxybenzaldoxime]",142.4 °C
8,"ON=Cc1cc(O)c(O)c(O)c1 [Test compound 2, 3,4,5-trihydroxybenzaldoxime]",177 °C (dec.)
9,"Cc1ccc(CON=Cc2ccc(O)c(O)c2)cc1 [Test compound 8, 3,4-dihydroxybenzaldehyde O-(4-methylbenzyl)-oxime]",85 to 86 °C
10,"COc1cc(C=NO)ccc1O [Test compound 10, 4-hydroxy-3-methoxybenzaldoxime]",118.2 °C

# Source: patent US6395260B1, “Topical cosmetic compositions comprising benzaldoximes” (Haarmann & Reimer GmbH, priority 1999, dated 2002)
